The experiment deals with catalytic domain of human PARP14 (Homo sapiens (Human), UniProt Q460N5). Put plainly: Enzymatic assay for inhibition of PARP14 (DELFIA, auto-modification with biotin-NAD). The following applies: auto-modification of PARP14 by biotin-NAD, 50 nM PARP14, 3 μM biotin-NAD. Type of experiment: biochemical. In outline:
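His-TEV-tagged PARP14 catalytic domain (50 nM) preincubated with compound 30 min at 25 °C, then auto-modified with 3 μM biotin-NAD for 3 h at 25 °C in HEPES pH 8 buffer with DTT. IC50 from 4-parameter fit, rucaparib and DMSO as controls.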

Structures can show the parent of a compound that is named as a salt.

Here are results for 41 compounds from patent US10562891B2, “Quinazolinones as PARP14 inhibitors” (Ribon Therapeutics Inc., priority 2017, dated 2020).

One may read the IC50 as the midpoint of a concentration-inhibition curve.

catalytic domain of human PARP14, sequence (Q460N5 1611-1801): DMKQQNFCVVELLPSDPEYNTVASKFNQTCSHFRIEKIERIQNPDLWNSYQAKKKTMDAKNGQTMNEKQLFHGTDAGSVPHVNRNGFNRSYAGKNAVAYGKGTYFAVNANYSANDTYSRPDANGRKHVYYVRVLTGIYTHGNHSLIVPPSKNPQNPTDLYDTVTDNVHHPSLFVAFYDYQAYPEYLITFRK

The compound `Cc1cccc2c(=O)[nH]c(CSC3CCN(CCNC(=O)c4ccccn4)CC3)nc12` [Example 164, N-(2-(4-(((8-Methyl-4-oxo-3,4-dihydroquinazolin-2-yl)methyl)thio)piperidin-1-yl)ethyl)picolinamide] displayed an IC50 of 1 to 10 µM. Under `O=c1[nH]c(CS[C@H]2CCNC[C@@H]2C(F)(F)F)nc2cc(NC3CCCC3)cc(F)c12` (relative stereo) [Example 222, 7-(Cyclopentylamino)-5-fluoro-2-(((trans-3-(trifluoromethyl)piperidin-4-yl)thio)methyl)quinazolin-4(3H)-one Hydrochloride] stands below 1 µM; under `Cc1ccc(C(F)(F)F)c2c(=O)[nH]c(CS[C@H]3CC[C@@H](O)CC3)nc12` [Example 61, 2-(((cis-4-Hydroxycyclohexyl)thio)methyl)-8-methyl-5-(trifluoromethyl) quinazolin-4(3H)-one], below 1 µM. Under `O=c1[nH]c(CS[C@H]2CC[C@H](O)CC2)nc2cc(NC3CCCC3)cc(F)c12` [Example 185, 7-(cyclopentylamino)-5-fluoro-2-((((1R,4R)-4-hydroxycyclohexyl)thio)methyl)quinazolin-4(3H)-one] stands below 1 µM; under `COCC(=O)N1CCC(COc2cc(F)c3c(=O)[nH]c(CSC4CCOCC4)nc3c2)CC1` [Example 424], below 1 µM; under `O=c1[nH]c(CSC2CCOCC2)nc2cc(NCC3CCOC3)c(F)c(F)c12` (centres unmarked) [Example 322, 5,6-Difluoro-2-(((tetrahydro-2H-pyran-4-yl)thio)methyl)-7-(((tetrahydrofuran-3-yl)methyl)amino)quinazolin-4(3H)-one], below 1 µM. Consider `O=c1[nH]c(CS[C@H]2CC[C@H](CO)CC2)nc2cc(NC3CCCCC3)ccc12` [Example 136, 7-(Cyclohexylamino)-2-(((trans-4-(hydroxymethyl)cyclohexyl)thio)methyl) quinazolin-4(3H)-one], for which the half-maximal inhibitory concentration (IC50) was below 1 µM. On to `O=c1[nH]c(CSC2CCOCC2)nc2cc(NC3CCCC3)cc(F)c12` [Example 184, 7-(cyclopentylamino)-5-fluoro-2-(((tetrahydro-2H-pyran-4-yl)thio)methyl)quinazolin-4(3H)-one], for which the IC50 was below 1 µM. The value for `O=c1[nH]c(CSC2CCOCC2)nc2cc(OC3CCCC3)ccc12` [Example 197, 7-(cyclopentyloxy)-2-(((tetrahydro-2H-pyran-4-yl)thio)methyl)quinazolin-4(3H)-one] was below 1 µM. On to `CC(C)Cc1ccc2c(=O)[nH]c(CSC3CCOCC3)nc2c1` [Example 202, 7-Isobutyl-2-(((tetrahydro-2H-pyran-4-yl)thio)methyl)quinazolin-4(3H)-one], for which the concentration for half-maximal inhibition (IC50) lay within 1 to 10 µM. The value for `Cc1ccc(F)c2c(=O)[nH]c(CSC3CCOCC3)nc12` [Example 8] was below 1 µM; that for `Cc1cc(NC2CCCC2)cc2nc(CSC3CCNCC3)[nH]c(=O)c12` [Example 257, 7-(Cyclopentylamino)-5-methyl-2-((piperidin-4-ylthio)methyl)quinazolin-4(3H)-one hydrochloride] was below 1 µM; that for `O=c1[nH]c(CSC2CCOCC2)nc2cc(NC3CCCC3)cc(CO)c12` [Example 224, 7-(Cyclopentylamino)-5-(hydroxymethyl)-2-(((tetrahydro-2H-pyran-4-yl)thio)methyl)quinazolin-4(3H)-one] was 1 to 10 µM. The value for `Cc1cccc2c(=O)[nH]c(CS[C@H]3CC[C@H](CC(N)=O)CC3)nc12` [Example 209, 2-((trans)-4-(((8-Methyl-4-oxo-3,4-dihydroquinazolin-2-yl)methyl)thio)cyclohexyl) acetamide] was below 1 µM; that for `Cc1cccc2c(=O)[nH]c(CS[C@H]3C[C@H](O)C3)nc12` [Example 47, 2-(((trans-3-Hydroxycyclobutyl)thio)methyl)-8-methylquinazolin-4(3H)-one] was 1 to 10 µM; that for `O=c1[nH]c(CSC2CCCNCC2)nc2cc(NC3CCCC3)ccc12` (centres unmarked) [Example 190, 2-((azepan-4-ylthio)methyl)-7-(cyclopentylamino)quinazolin-4(3H)-one] was below 1 µM.

The compound `O=c1[nH]c(CSC2CCN(CC(F)(F)F)CC2)nc2cc(NC3CCCC3)cc(F)c12` [Example 263, 7-(Cyclopentylamino)-5-fluoro-2-(((1-(2,2,2-trifluoroethyl)piperidin-4-yl)thio)methyl)quinazolin-4(3H)-one] yielded an IC50 below 1 µM. Compound `C[C@]1(O)C[C@H](COc2cc(F)c3c(=O)[nH]c(CSC4CCOCC4)nc3c2)C1` [Example 385] gave a 50% inhibitory concentration (IC50) below 1 µM. The compound `O=c1[nH]c(CSC2CCOCC2)nc2c(F)c(F)ccc12` [Example 45, 7,8-Difluoro-2-(((tetrahydro-2H-pyran-4-yl)thio)methyl)quinazolin-4(3H)-one] had a half-inhibitory concentration (IC50) of 1 to 10 µM. Under `O=c1[nH]c(CSC2CCC(F)(F)CC2)nc2cc(OCC3CCOCC3)cc(F)c12` [Example 366] stands below 1 µM; under `O=C(C1CC1)N1CCC(COc2cc(F)c3c(=O)[nH]c(CSC4CCOCC4)nc3c2)CC1` [Example 390], below 1 µM; under `O=c1[nH]c(CSC2CCOCC2)nc2cc(Oc3ccccc3)ccc12` [Example 29, 7-Phenoxy-2-(((tetrahydro-2H-pyran-4-yl)thio)methyl)quinazolin-4(3H)-one], 1 to 10 µM.

`O=c1[nH]c(CSC2CCOCC2)nc2cc(NC3CCCC3)cc(Cl)c12` [Example 253, 5-Chloro-7-(cyclopentylamino)-2-(((tetrahydro-2H-pyran-4-yl)thio)methyl)quinazolin-4(3H)-one] gave a concentration for half-maximal inhibition (IC50) below 1 µM. Consider `CO[C@H]1CC[C@@H](SCc2nc3c(C)cccc3c(=O)[nH]2)CC1` [Example 27, 2-((((cis)-4-Methoxycyclohexyl)thio)methyl)-8-methylquinazolin-4(3H)-one], for which the IC50 was in the range of 1 to 10 µM.

Compound `CC(Nc1cc2nc(CSC3CCOCC3)[nH]c(=O)c2c(F)c1F)C1CCOCC1` (centres unmarked) [Example 400] returned an IC50 above 10 µM. With `O=c1[nH]c(CSC2CCOCC2)nc2cc(OC[C@H]3CCNC[C@@H]3F)cc(F)c12` (relative stereo) [Example 352], the 50% inhibitory concentration (IC50) lay within 1 to 10 µM. `O=c1[nH]c(CS[C@H]2CC[C@H](O)CC2)nc2cc(NC3CCCCC3)cc(F)c12` [Example 249, 7-(Cyclohexylamino)-5-fluoro-2-((((1r,4r)-4-hydroxycyclohexyl)thio)methyl)quinazolin-4(3H)-one] yielded an IC50 below 1 µM.

Compound `CS(=O)(=O)N1CCC[C@@H](Nc2cc(F)c3c(=O)[nH]c(CS[C@H]4CC[C@H](O)CC4)nc3c2)C1` [Example 269, 5-Fluoro-2-(((trans-4-hydroxycyclohexyl)thio)methyl)-7-(((R)-1-(methylsulfonyl)piperidin-3-yl)amino)quinazolin-4(3H)-one] showed an IC50 below 1 µM. Consider `O=c1[nH]c(CSC2CCNCC2)nc2cc(NCCN3CCOCC3)cc(F)c12` [Example 277, 5-Fluoro-7-((2-morpholinoethyl)amino)-2-((piperidin-4-ylthio)methyl)quinazolin-4(3H)-one dihydrochloride], for which the half-inhibitory concentration (IC50) was below 1 µM.

In turn, `Cc1cccc2c(=O)[nH]c(CSC3CCN(C)C3)nc12` (centres unmarked) [Example 16, 8-Methyl-2-(((1-methylpyrrolidin-3-yl)thio)methyl)quinazolin-4(3H)-one] displayed an IC50 of 1 to 10 µM.

In turn, `O=c1[nH]c(CSC2CCNCC2)nc2cc(OCC3CCCC3)cc(F)c12` [Example 282, 7-(Cyclopentylmethoxy)-5-fluoro-2-((piperidin-4-ylthio)methyl)quinazolin-4(3H)-one 2,2,2-trifluoroacetate] returned a 50% inhibitory concentration (IC50) below 1 µM.

Regarding `O=c1[nH]c(CSC2CCOCC2)nc2cc(NCCC3CCCC3)ccc12` [Example 252, 7-((2-Cyclopentylethyl)amino)-2-(((tetrahydro-2H-pyran-4-yl)thio)methyl)quinazolin-4(3H)-one], the 50% inhibitory concentration (IC50) is below 1 µM. Under `O=c1[nH]c(CS[C@H]2CC[C@H](O)CC2)nc2cc(NCC3CC3)cc(F)c12` [Example 271, 7-((Cyclopropylmethyl)amino)-5-fluoro-2-(((trans-4-hydroxycyclohexyl)thio)methyl)quinazolin-4(3H)-one] stands below 1 µM.

`O=c1[nH]c(CSC2CCOCC2)nc2cc(Nc3ccccc3)ccc12` [Example 79, 7-(Phenylamino)-2-(((tetrahydro-2H-pyran-4-yl)thio)methyl)quinazolin-4(3H)-one] gave an IC50 below 1 µM.

`CC(=O)N1CCC(COc2cc(Cl)c3c(=O)[nH]c(CSC4CCOCC4)nc3c2)CC1` [Example 423] gave an IC50 below 1 µM. Compound `Cc1ccc(F)c2c(=O)[nH]c(CS[C@H]3CC[C@H](O)CC3)nc12` [Example 57, 5-Fluoro-2-(((trans-4-hydroxycyclohexyl)thio)methyl)-8-methylquinazolin-4(3H)-one] had an IC50 below 1 µM. On to `O=c1[nH]c(CSC2CCOCC2)nc2cc(NC3CCCCC3)cc(F)c12` [Example 247, 7-(Cyclohexylamino)-5-fluoro-2-(((tetrahydro-2H-pyran-4-yl)thio)methyl)quinazolin-4(3H)-one], for which the IC50 was below 1 µM. Turning to `CN1CCN([C@H]2CC[C@@H](Nc3cc4nc(CSC5CCOCC5)[nH]c(=O)c4c(F)c3F)CC2)CC1` [Example 347], the 50% inhibitory concentration (IC50) was below 1 µM. Under `CC(Oc1cc(F)c2c(=O)[nH]c(CSC3CCOCC3)nc2c1)C1CCCC1` (centres unmarked) [Example 394] stands below 1 µM. Compound `O=c1[nH]c(CS[C@H]2CC[C@@H](O)CC2)nc2cc(Nc3ccccc3)ccc12` [Example 99, 2-(((cis-4-Hydroxycyclohexyl)thio)methyl)-7-(phenylamino)quinazolin-4(3H)-one] registered an IC50 of 1 to 10 µM. The compound `O=c1[nH]c(CSC2CCOCC2)nc2cc(N[C@H]3CCCOC3)ccc12` [Example 187, (S)-7-((tetrahydro-2H-pyran-3-yl)amino)-2-(((tetrahydro-2H-pyran-4-yl)thio)methyl)quinazolin-4(3H)-one] registered an IC50 below 1 µM.
